According to US20240336615A1, “CYCLOPROPYL-(HETERO)ARYL-SUBSTITUTED ETHYL-SULFOXIME-PYRIDINE DERIVATIVES” (Boehringer Ingelheim Vetmedica GmbH, priority 2023, published 2024):

Key:
[1] = test system: Myzus persicae; assay: Insecticidal test on Myzus persicae (Example 17); format: in vivo; settings: 144 h, foliar application on Chinese cabbage, 6 days after application, read-out: control efficacy level (control rate)
Source text: The compounds of formula (I), (Ia) and/or (Ib) of the present invention or salts thereof are separately dispersed in water and diluted to 500 ppm and 50 ppm. Chinese cabbage plants are planted in plastic pots (diameter: 8 cm, height: 8 cm). Aphids (Myzus persicae) are propagated on the plants and then the number of surviving aphids is counted. The dispersion is applied to the foliage of the potted plants. After the plants are air dried, these are kept in a greenhouse. 6 days after the application, the number of the alive insects is counted on the plants. The control rate is calculated according to the following formula and the control efficacy is evaluated according to the following criteria. [formula] • Ta: the number of alive insects before the foliar application in a treated plot • T: the number of alive insects after the foliar application in a treated plot • Ca: the number of alive insects before the foliar application in an untreated plot • C: the number of alive insects after the foliar application in an untreated plot • A: the control rate is 100% • B: the control rate is 90 to 99% • C: the control rate is 80 to 89% • D: the control rate is 50 to 79%

[2] = test system: adult C. felis fleas; assay: Ingestion activity against adult Ctenocephalides felis, membrane feeding, alternative method (Examples 7 and 13); settings: Ctenocephalides felis
Description: Selected compounds of formula (I), (Ia) and (Ib) and compound “125” of WO 2021/033141 dissolved in 100% DMSO are diluted in bovine blood with sodium heparin anti-coagulant. The resulting formulation is offered via an artificial membrane feeding system to approximately 15 adult C. felis fleas previously dispensed into 24-well plates. The plates are then incubated in a double-chambered device. Visual evaluation for mortality is performed at 48 hours post-treatment. Compound efficacy at a given dose is expressed as percentage mortality and determined by normalization to positive and negative controls. A dose response series is implemented to determine EC50 values.
Compounds of formulae (I), (Ia) and/or (Ib) dissolved in 100% DMSO are diluted in bovine blood with sodium heparin anti-coagulant. The resulting formulation is offered via an artificial membrane feeding system to approximately 15 adult C. felis fleas previously dispensed into 24-well plates. The plates are then incubated in a double-chambered device. Visual evaluation for mortality is performed at 48 hours post-treatment. Compound efficacy at a given dose is expressed as percentage mortality and determined by normalization to positive and negative controls. A dose response series is implemented to determine EC50 values.

[3] = test system: adult C. felis fleas; assay: Ingestion activity against adult Ctenocephalides felis, membrane feeding, motility (Example 6); settings: 48 h, bovine blood via artificial membrane, 48h post treatment, read-out: EC50 (ingestion activity, % motility reduction)
Description: Compounds of formulae (I), (Ia) and/or (Ib) dissolved in 100% DMSO are added to bovine blood and offered via an artificial membrane feeding system to adult C. felis fleas. The motility of fleas is then visually inspected 48h post treatment. Efficacy is expressed in % motility reduction compared to controls containing blood treated with DMSO only. A dose response series is implemented to determine EC50 values.

[4] = test system: adult R. sanguineus ticks; assay: Contact activity against adult Rhipicephalus sanguineus (Example 5); settings: coated vials, 48 hours post-treatment, read-out: EC50 (contact activity, percentage mortality)
Description: Compounds of formulae (I), (Ia) and/or (Ib) formulated in 100% DMSO are diluted in a solution containing acetone and Triton X-100 (0.02%). The resulting formulation is used to coat the inner walls of glass scintillation vials and the filter paper covering the cap of the vial. Once dried, ten adult R. sanguineus ticks are added to the vials. The vials are incubated at 24° C., 95% relative humidity, and 12 hours of light/12 hours of dark until evaluation. Ticks are visually evaluated for mortality at 48 hours post-treatment. Compound efficacy at a given dose is expressed as percentage mortality. A dose response series is implemented to determine EC50 values.

[5] = test system: adult Ctenocephalides felis fleas; assay: Contact activity against adult Ctenocephalides felis (Example 4); settings: adult C. felis, coated pipe cleaner in vial, 72 hours post-treatment, read-out: EC50 (contact activity, percentage mortality)
Description: Compounds of formulae (I), (Ia) and/or (Ib) dissolved in 100% DMSO are diluted in acetone to a desired concentration. The resulting formulation is used to coat the fibers of a 0.5-inch-long piece of pipe cleaner placed in a glass scintillation vial. The vial is capped with a rubber gasket and filter paper insert. After the acetone has evaporated, ten adult Ctenocephalides felis fleas are added to each vial. The vials are then incubated at 22° C., 80% relative humidity, and 12 hours of light/12 hours of dark until a visual evaluation for mortality is performed at 72 hours post-treatment. Compound efficacy at a given dose is expressed as percentage mortality and adjusted to remove background mortality observed in control vials containing DMSO only. A dose response series of treated vials is implemented to determine EC50 values.

[6] = test system: Plutella xylostella; assay: Insecticidal test on Plutella xylostella (Example 15); format: in vivo; settings: 144 h, Chinese cabbage seedling dip, 6 days after dip treatment, read-out: activity level (corrected mortality rate)
Description: The compounds of formula (I), (Ia) and/or (Ib) of the present invention or salts thereof are separately dispersed in water and diluted to 500 ppm and 50 ppm. Ten adults of Plutella xylostella are released onto Chinese cabbage seedlings and allowed to lay eggs thereon. 2 days after the release of the adults, the seedling is dipped in the dispersion for about 30 seconds. After air dried, the seedling is kept in a room at 25° C. 6 days after the dip treatment, the numbers of the dead and alive insects are counted. The corrected mortality rate is calculated according to the following formula and the insecticidal activity is evaluated according to the following criteria.

[7] = test system: Laodelphax striatellus; assay: Insecticidal test on Laodelphax striatellus (Example 16); format: in vivo; settings: 192 h, rice seedling dip, 3rd-instar nymphs, 8 days after inoculation, read-out: activity level (corrected mortality rate)
Description: The compounds of formula (I), (Ia) and/or (Ib) of the present invention or salts thereof are separately dispersed in water and diluted to 500 ppm and 50 ppm. Rice plant seedlings are dipped in the dispersion for about 30 seconds. After air dried, the seedlings are put into a separate glass test tube and inoculated with ten 3rd-instar nymphs of Laodelphax striatellus and then the glass test tube is kept in a room at 25° C. 8 days after the inoculation, the numbers of the dead and alive insects are counted. The corrected mortality rate is calculated according to the following formula and the insecticidal activity is evaluated according to the following criteria.

[8] = test system: Spodoptera litura; assay: Insecticidal test on Spodoptera litura (Example 14); format: in vivo; settings: foliar, 192 h, cabbage leaf dip, 2nd-instar larvae, 8 days after inoculation, read-out: activity level (corrected mortality rate)
Description: The compounds of formula (I), (Ia) and/or (Ib) of the present invention or salts thereof are separately dispersed in water and diluted to 500 ppm and 50 ppm. Cabbage leaves are dipped in the dispersion for about 30 seconds. After air dried, the leaves are placed in a plastic Petri dish with a diameter of 9 cm and inoculated with ten 2nd-instar larvae of Spodoptera litura, after which the dish is closed and then allowed to stand in a room at 25° C. 8 days after the inoculation, the numbers of the dead and alive insects are counted. The corrected mortality rate is calculated according to the following formula and the insecticidal activity is evaluated according to the following criteria.
[formula] [formula] • A: the corrected mortality rate is 100% • B: the corrected mortality rate is 90 to 99% • C: the corrected mortality rate is 80 to 89% • D: the corrected mortality rate is 50 to 79%

[9] = test system: A. aegypti L1 larvae; assay: Activity against larvae of Aedes aegypti (Example 3); settings: 48 h at 27° C., read-out: EC50 (percentage of mortality, larvae)
Description: Eight A. aegypti L1 larvae in a total volume of 64 μL water are added to 384-well microplates containing compounds of formulae (I), (Ia) and/or (Ib) formulated in 100% DMSO. The plates are incubated for 48 h at 27° C. Individual well images are acquired and analyzed using a pipeline to quantitatively assess the amount of larvae biomass accumulating at the bottom of the well. The efficacy of a compound at a given dose is expressed as “percentage of mortality” and determined by comparison to average biomass descriptors of positive and negative control wells containing 1.0 μM Fipronil or DMSO only, respectively. Dose response assay are conducted to determine an EC50 value.

[10] = adult C. felis, bovine blood with sodium heparin, membrane feeding, 48 hours post-treatment, read-out: EC50 (ingestion activity, percentage mortality, alternative method)
[11] = alternative method according to Example 7, mortality at 48 hours post-treatment, read-out: C. felis membrane feeding (ingestion/blood feeding) activity EC50

| SMILES | EC50 [3] [nM] | pest or weed control at 500 ppm [1] [%] | EC50 [2, 10] [nM] | EC50 [2, 11] [nM] | EC50 [4] [nM] | EC50 [5] [nM] | mortality at 500 ppm [6] [%] | mortality at 500 ppm [7] [%] | mortality at 500 ppm [8] [%] | pest or weed control at 50 ppm [1] [%] | mortality at 50 ppm [6] [%] | mortality at 50 ppm [8] [%] | mortality at 50 ppm [7] [%] | EC50 [9] [nM] |
| --- | --- | --- | --- | --- | --- | --- | --- | --- | --- | --- | --- | --- | --- | --- |
| CCS(=N)(=O)c1cc(-c2noc(C3(F)CC3)n2)cnc1-c1nc2cc(C(F)(F)C(F)(F)F)cnc2n1C (stereo not shown) [Compound 5] | 1000 to 10000 | 100 | 1000 to 10000 | 1080 | 10000 to 100000 | < 10000 | 100 | 100 | 100 | – | – | – | – | – |
| CCS(=N)(=O)c1cc(-c2noc(C3(C(F)(F)F)CC3)n2)cnc1-c1nc2cc(C(F)(F)C(F)(F)F)cnc2n1C (stereo not shown) [Compound 3] | < 1000 | – | < 1000 | 448 | 10000 to 100000 | < 10000 | – | – | – | 100 | 100 | 100 | 100 | – |
| CCS(=N)(=O)c1cc(-c2noc(C3CC3)n2)cnc1-c1nc2cc(C(F)(F)C(F)(F)F)nnc2n1C (stereo not shown) [Compound 8] | 1000 to 10000 | 100 | < 1000 | 643 | 10000 to 100000 | < 10000 | 100 | 100 | – | – | – | – | – | – |
| CCS(=N)(=O)c1cc(-c2noc(C3(C(F)(F)F)CC3)n2)cnc1-c1nc2cc(C(F)(F)C(F)(F)F)nnc2n1C (stereo not shown) [Compound 31] | < 1000 | – | < 1000 | 78 | 10000 to 100000 | < 10000 | – | – | – | 100 | 100 | – | 100 | < 40 |
| CCS(=N)(=O)c1cc(-c2cc(C3CC3)ns2)cnc1-c1nc2cc(C(F)(F)C(F)(F)F)cnc2n1C (stereo not shown) [Compound 20] | < 1000 | – | 1000 to 10000 | – | 10000 to 100000 | < 10000 | – | – | – | – | 100 | 100 | 100 | – |
| CCS(=N)(=O)c1cc(-c2cc(C3CC3)sn2)cnc1-c1nc2cc(C(F)(F)C(F)(F)F)cnc2n1C (stereo not shown) [Compound 25] | < 1000 | – | 1000 to 10000 | – | – | 10000 to 100000 | – | 100 | – | 100 | 100 | 100 | – | – |
| CCS(=N)(=O)c1cc(-c2cn(C3CC3)cn2)cnc1-c1nc2cc(C(F)(F)C(F)(F)F)cnc2n1C (stereo not shown) [Compound 21] | < 1000 | 100 | < 1000 | 403 | – | 10000 to 100000 | 100 | 100 | 100 | – | – | – | – | – |

The next lines start with results.

| EC50 [3] [nM] | SMILES | pest or weed control at 500 ppm [1] [%] | EC50 [2, 10] [nM] | EC50 [2, 11] [nM] | EC50 [4] [nM] | EC50 [5] [nM] | mortality at 500 ppm [6] [%] | mortality at 500 ppm [7] [%] | mortality at 500 ppm [8] [%] | pest or weed control at 50 ppm [1] [%] | mortality at 50 ppm [6] [%] | mortality at 50 ppm [8] [%] | mortality at 50 ppm [7] [%] | EC50 [9] [nM] |
| --- | --- | --- | --- | --- | --- | --- | --- | --- | --- | --- | --- | --- | --- | --- |
| < 1000 | CCS(=N)(=O)c1cc(-c2cc(C3CC3)no2)cnc1-c1nc2cc(C(F)(F)C(F)(F)F)cnc2n1C (stereo not shown) [Compound 19] | 100 | 1000 to 10000 | – | 10000 to 100000 | < 10000 | 100 | 100 | 100 | – | – | – | – | – |
| < 1000 | CCS(=N)(=O)c1cc(-c2cnn(C3CC3)c2)cnc1-c1nc2cc(C(F)(F)C(F)(F)F)nnc2n1C (stereo not shown) [Compound 30] | 100 | < 1000 | 519 | 10000 to 100000 | < 10000 | 100 | 100 | 100 | – | – | – | – | – |
| < 1000 | CCS(=N)(=O)c1cc(-n2cc(C3CC3)cn2)cnc1-c1nc2cc(C(F)(F)C(F)(F)F)cnc2n1C (stereo not shown) [Compound 27] | 100 | < 1000 | 177 | < 10000 | < 10000 | 100 | 100 | 100 | – | – | – | – | – |
| < 1000 | CCS(=N)(=O)c1cc(-c2cc(C3CC3)on2)cnc1-c1nc2cc(C(F)(F)C(F)(F)F)cnc2n1C (stereo not shown) [Compound 24] | 100 | < 1000 | 839 | 10000 to 100000 | < 10000 | 100 | 100 | – | 100 | 100 | 100 | – | – |
